Here are results for 17 compounds from PMC7356787, “Structure-Activity Relationships for the Anaesthetic and Analgaesic Properties of Aromatic Ring-Substituted Ketamine Esters” (Molecules, 2020).

pIC50: −log10 of the molar value. Bounds are passed on as bounds.

Data set [1] concerns the target N-methyl-D-aspartate receptor. Description: Inhibition of the NMDA receptor (Eurofins Panlabs Taiwan). Format: binding. Conditions: conducted by Eurofins Panlabs Taiwan. Here is the method:
(§1) The compounds were evaluated for their ability to anaesthetise rats when administered by continuous intravenous infusion, as reported previously. Compounds were administered to initially deliver 20 mg/kg/min (weight-adjusted flow) to achieve a pedal withdrawal reflex score (PWR = 1), then titrated to maintain loss of righting reflex (LORR) for 10 min. Three rats were used in each study, with each group of rats also acting as their own ketamine control. Data were collected on the total dose of drug (mg/kg), to achieve LORR and a PWR = 1, and on the time (in seconds, from cessation of the infusion) to recovery of righting reflex (RORR) (recovery from the hypnotic anaesthesia effect). Given the complexity of the experimental protocol, the total dose for LORR (Table 1) is very consistent, with ranges of only 1.5-fold within each group. The consistency of the post-sedation recovery times are expectedly lower, with ranges of about 2.5-fold. During recovery the rats were monitored for multiple signs of behavioural dysfunction (see biology section for details) and the sum of these scores (from 0 to 4, with 0 being no effect and 4 being severe dysfunction) is given in Table 2. IC50 values for inhibition of the NMDA receptor were conducted by Eurofins PanLabs, Taiwan.

The nature of the next data set: Drug half-life in rats. The note with it: rat, in vivo. From the text: Table 1 Biological and physiochemical data for esters of ring-substituted ketamine analogues. | column: Rat / t½ ^e (min)
Data set [2] concerns rats. Description: Anaesthetic assessment by continuous intravenous infusion in rats (loss and return of righting reflex). In kind it is in vivo. The note with it: iv; rat, i.v. infusion starting at 20 mg/kg/min; measure of sedative potency; mean (SEM); read-out: Sedation LORR: minimal dose for loss of righting reflex (SEM). Here is the method: as §1
(§2) All animal experiments were conducted at the Ruakura Research Centre, Hamilton, New Zealand, using experimental protocols reviewed and approved by the Ruakura Animal Ethics Committee (ethics ref 12604/13786). Adult female Sprague-Dawley rats of approximately 250–350 g were evaluated in both anaesthetic and analgaesic study protocols. All study agents were delivered by tail vein cannula connected via minibore extension tubing to mechanised infusion pump.
(§3) Following acquisition of baseline physiologic parameters (heart rate, respiratory rate, PWR, and righting reflex (RR)) ketamine or an experimental compound at 10mg/mL were commenced at a rate (weight-adjusted) to deliver 20 mg/kg/min. Dose to loss of righting reflex (LORR see below), and subsequent pedal withdrawal score of 1 (PWR see below) were recorded. Following attaining a PWR of 1, infusion rate was reduced to 6.7 mg/kg/min, then titrated in an up-and-down fashion as required to maintain both dorsal recumbency, and a PWR = 1, to 10 min before cessation. Each study used three rats, with each group of rats also acting as their own ketamine control. Prior odds/evens randomisation determined the order of study drug administration was determined by with a recovery interval of at least three hours afforded between experiments. Records of PWR and RR were made at one-minute intervals throughout, from cessation of infusion to return of righting reflex (RORR), and from cessation of infusion to the animals displaying independent locomotion (walk).
Loss of Righting Reflex (LORR): This is primarily used to assess anaesthetic hypnotic effect. Righting reflex is judged absent when the rat fails to right from a position of dorsal recumbency to a position of sternal recumbency on three attempts performed in rapid succession. Dose to LORR is termed effective potency.

Data set [3] has as its system rats. Description: Tail flick analgaesic assessment (composite tail flick latency, cTFL). Format: in vivo. The note with it: rat, 20 mg/kg i.v. infused over 10 min; AUC of %MPE-time curve 0-60 min; measure of analgaesic magnitude/duration. Here is the method:
Analgaesic assessment protocol: Animal preparation was in accord with the anaesthetic assessment protocol above. Three rats were used in each study. Following venous cannulation, animals underwent infusion of ketamine or experimental compound at 20 mg/kg over a ten minute interval. A tail flick analgaesia meter (Colombus Instruments, Colombus, Ohio) was then used to determine thermal pain sensitivity. Radiant heat was applied using a shutter-controlled lamp as a heat source focused on a spot located 6–8 cm from the tip of the tail. The intensity of the beam was set at a level producing basal latency times between 2 and 4 s. To prevent thermal tissue injury the cut off time as set at 10 s. A digital response time indicator with a resolution of 0.1s measured the time from initiation of stimulus until tail withdrawal (the flick; TFL).
The TFL response following infusion of control and study drugs was calculated as a percentage of the maximum possible effect (MPE) such that:%MPE = [TFL (post-drug) – TFL (pre-drug)/10 s – TFL (pre-drug)] × 100%(1)
TFL latency was recorded at 5 min intervals from cessation of study drug infusion (time zero) to 60 min. Individual %MPE-time curves were constructed for each animal, and the area under the curve (AUC) adopted as a composite measure of induced analgaesia (cTFL).

Data set [4] concerns rats. Briefly: Behavioural dysfunction scoring during recovery from infusion. The note with it: rat, during wake-up, sum score 0 (no effect) to 4 (severe dysfunction), mean (SEM). In kind it is in vivo. Here is the method:
as §1
Behavioural dysfunction scoring: This was undertaken according to the following table. Observations were made over a one minute interval every five minutes from cessation of infusion until return of normal behaviours (total score = 0). A score of 1 was accorded for any positive behavioural aberration for each of four categories (maximal score 4) during wake-up.
Duration of any behavioural aberration was recorded from RORR as follows: score 0 = nil; score1 = 0–120 s; score 2 = 121–300 s; score 3 = 301–600 s; score 4 = 600+ s.

Data set [5] deals with rats. Description: Pedal withdrawal reflex (PWR) scoring during intravenous infusion (analgaesic potency). Format: in vivo. The note with it: rat, i.v. infusion, dose to PWR = 1, mean (SEM), read-out: Analgaesia potency: minimal dose for loss of pedal withdrawal reflex (SEM). How it is done: as §1, §2, §3
Pedal Withdrawal Reflex (PWR) scoring: Nociceptive testing in animals was conducted via 1 s application of constant pressure (firm digital pressure) over the forepaw of the animal. Pedal withdrawal reflex testing is primarily used to assess analgaesic effect, and responses are graded accordingly: 0, absent; 1, flicker; 2, moderate withdrawal; 3, fast withdrawal; 4, Fast withdrawal with cry/preceding apnoea (modified from).

For `CNC1(c2ccccc2Cl)CCCCC1=O` (centres unmarked) [compound 1, ketamine], the pIC50 – broadly, the negative decadic logarithm of the IC50, by convention in mol/L – in data set [1] was 6.15. Moreover, in the data set “Drug half-life in rats”, the half-life (in general, how long it takes for the measured level to halve) was found to be 44.4 min. The minimal effective dose in the data set with rats [2] stood at 21 mg/kg; in the data set on rats [5], 28 mg/kg. Further, in the data set on rats [3], the “Analgaesia cTFL (composite tail flick latency)” value (from here on “Analgaesia cTFL”) was determined as 671 s. In addition, the results for the “Behavioural dysfunction Score (SEM): severity on recovery” value (from here on “Behavioural dysfunction Score (SEM)”) in the data set with rats [4] and with rats [4] (listed as ketamine) were 3 (0) and 3, respectively.

`CC(C)OC(=O)CCNC1(c2ccccc2Cl)CCCCC1=O` (centres unmarked) [5a]: in data set [1], the pIC50 is 3.87. This compound gave a half-life in the data set “Drug half-life in rats” of 3.4 min. For the same compound, the figures for the minimal effective dose in the data set with rats [2] and in the data set on rats [5] were 33 mg/kg and 37 mg/kg, respectively. Moreover, the “Analgaesia cTFL” value with rats [3] was 1384 s. In the data set on rats [4], the “Behavioural dysfunction Score (SEM)” value was 2 (1).

In the case of `COc1ccccc1C1(NCCC(=O)OC(C)C)CCCCC1=O` (centres unmarked) [7a], in data set [1], the pIC50 is 3.76. For the same compound, the minimal effective dose in the data set on rats [2] and in the data set on rats [5] was above 200 mg/kg in each case. For the same compound, the “Analgaesia cTFL” value in the data set on rats [3] amounted to 313 s. Also, the “Behavioural dysfunction Score (SEM)” value in the data set with rats [4] is listed as 0 (0).

In turn, `COc1cccc(C2(NCCC(=O)OC(C)C)CCCCC2=O)c1` (centres unmarked) [12a] showed a pIC50 in data set [1] of 3.70. Moreover, the minimal effective dose in the data set on rats [2] was determined as 79 mg/kg; with rats [5], 83 mg/kg. Moreover, the “Analgaesia cTFL” value in the data set on rats [3] was 284 s. Moreover, in the data set with rats [4], the “Behavioural dysfunction Score (SEM)” value is 2 (0).

As to `CC(C)OC(=O)CCNC1(c2cccc(Cl)c2)CCCCC1=O` (centres unmarked) [10a], the pIC50 in data set [1] was 3.79. Moreover, the minimal effective dose with rats [2] is 67 mg/kg; with rats [5] it was 58 mg/kg. Besides, the “Analgaesia cTFL” value in the data set with rats [3] amounted to 332 s. Also, the “Behavioural dysfunction Score (SEM)” value in the data set on rats [4] was 1 (0).

Take `COC(=O)CCCCNC1(c2cccc(OC)c2)CCCCC1=O` (centres unmarked) [12b]: the negative logarithm of the IC50 (pIC50) in data set [1] is 5.25. The values for the minimal effective dose with rats [2] and with rats [5] were 50 mg/kg and 58 mg/kg, respectively. The “Analgaesia cTFL” value in the data set on rats [3] came out at 210 s. Further, the “Behavioural dysfunction Score (SEM)” value in the data set with rats [4] is listed as 3 (1.4).

In data set [1], `CC(C)OC(=O)CCNC1(c2ccc(C(F)(F)F)cc2)CCCCC1=O` (centres unmarked) [18a] showed a pIC50 of 3.36. Besides, the minimal effective dose in the data set on rats [2] and with rats [5] was above 200 mg/kg throughout. Also, the “Analgaesia cTFL” value in the data set with rats [3] came out at 412 s. Besides, the “Behavioural dysfunction Score (SEM)” value with rats [4] is 0 (0).

In turn, `COC(=O)CCCCNC1(c2cccc(OC(F)(F)F)c2)CCCCC1=O` (centres unmarked) [14b] had a negative logarithm of the IC50 (pIC50) in data set [1] of 4.24. For the same compound, the minimal effective dose in the data set with rats [2] and in the data set on rats [5] was above 200 mg/kg each time. Besides, the “Analgaesia cTFL” value with rats [3] came out at 444 s. Also, the “Behavioural dysfunction Score (SEM)” value in the data set with rats [4] is listed as 0 (0).

Take `Cc1ccccc1C1(NCCC(=O)OC(C)C)CCCCC1=O` (centres unmarked) [6a]: in data set [1], the negative-log IC50 (pIC50) was 3.37. The minimal effective dose in the data set on rats [2] and in the data set with rats [5] was above 200 mg/kg in each case. The “Analgaesia cTFL” value with rats [3] is 393 s. In addition, in the data set with rats [4], the “Behavioural dysfunction Score (SEM)” value is recorded as 0 (0).

Compound `Cc1ccc(C2(NCCC(=O)OC(C)C)CCCCC2=O)cc1` (centres unmarked) [16a] gave a pIC50 in data set [1] of 3.79. Moreover, the minimal effective dose with rats [2] worked out at 47 mg/kg; in the data set with rats [5], 52 mg/kg. The “Analgaesia cTFL” value in the data set on rats [3] is 650 s. Besides, in the data set on rats [4], the “Behavioural dysfunction Score (SEM)” value is given as 1 (0).

`CC(C)OC(=O)CCNC1(c2ccccc2C(F)(F)F)CCCCC1=O` (centres unmarked) [8a] gave a pIC50 in data set [1] of 3.54. Moreover, the minimal effective dose in the data set on rats [2] and in the data set with rats [5] was 64 mg/kg each time. For the same compound, the “Analgaesia cTFL” value in the data set with rats [3] was 652 s. Moreover, in the data set on rats [4], the “Behavioural dysfunction Score (SEM)” value is reported as 2 (1).

For `COC(=O)CCCCNC1(c2ccccc2Cl)CCCCC1=O` (centres unmarked) [5b], the negative-log IC50 (pIC50) in data set [1] is 5.49. Moreover, the half-life in the data set “Drug half-life in rats” is 0.7 min. Further, the figures for the minimal effective dose with rats [2] and in the data set on rats [5] were 34 mg/kg and 44 mg/kg, respectively. The “Analgaesia cTFL” value in the data set on rats [3] is 374 s. For the same compound, the “Behavioural dysfunction Score (SEM)” value with rats [4] is given as 2 (0).

Consider `CC(C)OC(=O)CCNC1(c2ccccc2)CCCCC1=O` (centres unmarked) [3a], for which, in data set [1], the negative logarithm of the IC50 (pIC50) was below 3.00. For the same compound, the minimal effective dose in the data set with rats [2] and with rats [5] was above 200 mg/kg in each case. For the same compound, in the data set on rats [3], the “Analgaesia cTFL” value was found to be 0 s. In the data set with rats [4], the “Behavioural dysfunction Score (SEM)” value is 0.5 (0.7).

Compound `COC(=O)CCCCNC1(c2ccccc2F)CCCCC1=O` (centres unmarked) [4b] showed a pIC50 in data set [1] of 5.51. Further, the minimal effective dose in the data set on rats [2] came to 35 mg/kg; in the data set on rats [5], 40 mg/kg. Further, in the data set with rats [3], the “Analgaesia cTFL” value stood at 11 s. In the data set on rats [4], the “Behavioural dysfunction Score (SEM)” value is 3 (1.4).

Consider `COC(=O)CCCCNC1(c2ccc(OC(F)(F)F)cc2)CCCCC1=O` (centres unmarked) [19b], for which, in data set [1], the negative logarithm of the IC50 (pIC50) is 3.22. Besides, the minimal effective dose in the data set on rats [2] and with rats [5] was above 200 mg/kg each time. Besides, the “Analgaesia cTFL” value in the data set on rats [3] was determined as 194 s. The “Behavioural dysfunction Score (SEM)” value in the data set on rats [4] was 0 (0).

Turning to `CC(C)OC(=O)CCNC1(c2ccc(OC(F)(F)F)cc2)CCCCC1=O` (centres unmarked) [19a], the pIC50 in data set [1] is 3.50. Also, the minimal effective dose with rats [2] and with rats [5] was above 200 mg/kg throughout. Also, the “Analgaesia cTFL” value in the data set with rats [3] was found to be 166 s. Also, the “Behavioural dysfunction Score (SEM)” value in the data set with rats [4] is on record as 0 (0).

In data set [1], `COC(=O)CCCCNC1(c2ccc(C(F)(F)F)cc2)CCCCC1=O` (centres unmarked) [18b] showed a pIC50 of 3.33. Also, the minimal effective dose in the data set on rats [2] and with rats [5] was above 200 mg/kg each time. The “Analgaesia cTFL” value in the data set on rats [3] turned out to be 37 s. The “Behavioural dysfunction Score (SEM)” value in the data set with rats [4] is listed as 0 (0).
